Measured values published in ChEMBL document CHEMBL4052655, “Synthesis, spectroscopic characterization and biological evaluation of unsymmetrical aminosquarylium cyanine dyes” (Bioorg Med Chem, 2017).
Calls of active or inactive are those of the source. The calls are words filed in the database; no cut-off is given here.

How the values were obtained:
[1] = Dark toxicity against human HepG2 cells pretreated for 24 hrs followed by 14 mins dark incubation measured after 1 hr by Alamar blue assay; type: cell-based
Caco-2 [2] = experiment: Phototoxicity against human Caco2 cells pretreated for 24 hrs followed by 1.81 J irradiation for 7 mins measured after 1 hr by Alamar blue assay; type: functional, cell-based; settings: Caco-2, light or radiation study
Caco-2 [3] = experiment: Phototoxicity against human Caco2 cells assessed as cell viability at 5 uM pretreated for 24 hrs followed by 3.61 J irradiation for 14 mins measured after 24 hrs by Alamar blue assay (reference value: 60%); type: functional; settings: Caco-2, light or radiation study, read-out: Activity
Caco-2 [4] = experiment: Phototoxicity against human Caco2 cells pretreated for 24 hrs followed by 3.61 J irradiation for 14 mins measured after 1 hr by Alamar blue assay; type: functional, cell-based; settings: Caco-2, light or radiation study
[5] = Dark toxicity against human Caco2 cells pretreated for 24 hrs followed by 14 mins dark incubation measured after 24 hrs by Alamar blue assay; type: cell-based; settings: Caco-2 cells
HepG2 [6] = experiment: Phototoxicity against human HepG2 cells assessed as reduction in cell viability at 1 uM pretreated for 24 hrs followed by 1.81 J irradiation for 7 mins measured after 24 hrs by Alamar blue assay; type: functional, cell-based
HepG2 [7] = experiment: Phototoxicity against human HepG2 cells pretreated for 24 hrs followed by 1.81 J irradiation for 7 mins measured after 24 hrs by Alamar blue assay; type: functional, cell-based; settings: HepG2, light or radiation study
Caco-2 [8] = experiment: Phototoxicity against human Caco2 cells assessed as reduction in cell viability at 1 uM pretreated for 24 hrs followed by 1.81 J irradiation for 7 mins measured after 1 to 24 hrs by Alamar blue assay; type: functional, cell-based
HepG2 [9] = experiment: Phototoxicity against human HepG2 cells assessed as reduction in cell viability at 1 uM pretreated for 24 hrs followed by 3.61 J irradiation for 14 mins measured after 1 hr by Alamar blue assay; type: functional, cell-based
Caco-2 [10] = experiment: Phototoxicity against human Caco2 cells pretreated for 24 hrs followed by 1.81 J irradiation for 7 mins measured after 24 hrs by Alamar blue assay; type: functional, cell-based; settings: Caco-2, light or radiation study
[11] = Dark toxicity against human Caco2 cells assessed as cell viability at 0.1 to 1 uM pretreated for 24 hrs followed by 14 mins dark incubation after 1 to 24 hrs by Alamar blue assay relative to control; type: cell-based; settings: Caco-2 cells, read-out: Activity
[12] = Dark toxicity against human Caco2 cells assessed as cell viability at 5 to 10 uM pretreated for 24 hrs followed by 14 mins dark incubation measured after 1 to 24 hrs by Alamar blue assay relative to control; type: cell-based; settings: Caco-2 cells, read-out: Activity
[13] = Dark toxicity against human HepG2 cells assessed as cell viability at 5 to 10 uM pretreated for 24 hrs followed by 14 mins dark incubation measured after 1 to 24 hrs by Alamar blue assay relative to control; type: cell-based; settings: read-out: Activity
Caco-2 [14] = experiment: Phototoxicity against human Caco2 cells assessed as reduction in cell viability at 1 uM pretreated for 24 hrs followed by 3.61 J irradiation for 14 mins measured after 24 hrs by Alamar blue assay; type: functional, cell-based
[15] = Dark toxicity against human HepG2 cells pretreated for 24 hrs followed by 14 mins dark incubation measured after 24 hrs by Alamar blue assay; type: cell-based
HepG2 [16] = experiment: Phototoxicity against human HepG2 cells pretreated for 24 hrs followed by 1.81 J irradiation for 7 mins measured after 1 hr by Alamar blue assay; type: functional, cell-based; settings: HepG2, light or radiation study
Caco-2 [17] = experiment: Ratio of IC50 for human Caco2 cells pretreated for 24 hrs followed by 14 mins dark incubation to IC50 for human Caco2 cells pretreated for 24 hrs followed by 3.61 J irradiation for 14 mins
[18] = Induction of singlet oxygen production in chloroform
HepG2 [19] = experiment: Phototoxicity against human HepG2 cells assessed as reduction in cell viability at 1 uM pretreated for 24 hrs followed by 3.61 J irradiation for 14 mins measured after 24 hrs by Alamar blue assay; type: functional, cell-based
HepG2 [20] = experiment: Phototoxicity against human HepG2 cells pretreated for 24 hrs followed by 3.61 J irradiation for 14 mins measured after 24 hrs by Alamar blue assay; type: functional, cell-based; settings: HepG2, light or radiation study
[21] = Dark toxicity against human Caco2 cells pretreated for 24 hrs followed by 14 mins dark incubation measured after 1 hr by Alamar blue assay; type: cell-based; settings: Caco-2 cells
Caco-2 [22] = experiment: Phototoxicity against human Caco2 cells pretreated for 24 hrs followed by 3.61 J irradiation for 14 mins measured after 24 hrs by Alamar blue assay; type: functional, cell-based; settings: Caco-2, light or radiation study
[23] = Dark toxicity against human HepG2 cells assessed as cell viability at 1 uM pretreated for 24 hrs followed by 14 mins dark incubation after 48 hrs by Alamar blue assay relative to control; type: cell-based; settings: read-out: Activity
HepG2 [24] = experiment: Phototoxicity against human HepG2 cells pretreated for 24 hrs followed by 3.61 J irradiation for 14 mins measured after 1 hr by Alamar blue assay; type: functional, cell-based; settings: HepG2, light or radiation study
Caco-2 [25] = experiment: Phototoxicity against human Caco2 cells assessed as cell viability at 5 uM pretreated for 24 hrs followed by 1.81 J irradiation for 7 mins measured after 24 hrs by Alamar blue assay (reference value: 60%); type: functional; settings: Caco-2, light or radiation study, read-out: Activity
Caco-2 [26] = experiment: Phototoxicity against human Caco2 cells assessed as cell viability at 1 uM pretreated for 24 hrs followed by 3.61 J irradiation for 14 mins measured after 24 hrs by Alamar blue assay (reference value: 80%); type: functional; settings: Caco-2, light or radiation study, read-out: Activity
HepG2 [27] = experiment: Phototoxicity against human HepG2 cells assessed as reduction in cell viability at 1 uM pretreated for 24 hrs followed by 1.81 J irradiation for 7 mins measured after 1 hr by Alamar blue assay; type: functional, cell-based
[28] = Dark toxicity against human Caco2 cells assessed as cell viability at 1 uM pretreated for 24 hrs followed by 14 mins dark incubation after 1 to 24 hrs by Alamar blue assay relative to control; type: cell-based; settings: Caco-2 cells, read-out: Activity
Caco-2 [29] = experiment: Dark toxicity against human Caco2 cells assessed as reduction in cell viability at 10 uM pretreated for 24 hrs followed by 14 mins dark incubation measured after 1 to 24 hrs by Alamar blue assay; type: cell-based; settings: caco-2, 10 µM
[30] = Dark toxicity against human HepG2 cells assessed as cell viability at 10 uM pretreated for 24 hrs followed by 14 mins dark incubation measured after 1 to 24 hrs by Alamar blue assay relative to control; type: cell-based; settings: read-out: Activity
HepG2 [31] = experiment: Phototoxicity against human HepG2 cells assessed as cell viability at 5 uM pretreated for 24 hrs followed by 3.61 J irradiation for 14 mins measured after 24 hrs by Alamar blue assay relative to control; type: functional; settings: HepG2, light or radiation study, read-out: Activity
HepG2 [32] = experiment: Phototoxicity against human HepG2 cells assessed as reduction in cell viability up to 10 uM pretreated for 24 hrs followed by 1.81 J irradiation for 7 mins measured after 1 hr by Alamar blue assay; type: functional, cell-based
Caco-2 [33] = experiment: Phototoxicity against human Caco2 cells at 5 to 10 uM pretreated for 24 hrs followed by 3.61 J irradiation for 14 mins measured after 24 hrs by Alamar blue assay; type: functional, cell-based
Caco-2 [34] = experiment: Dark toxicity against human Caco2 cells assessed as reduction in cell viability at 1 uM pretreated for 24 hrs followed by 14 mins dark incubation measured after 1 to 24 hrs by Alamar blue assay; type: cell-based; settings: caco-2, 1 µM
HepG2 [35] = experiment: Dark toxicity against human HepG2 cells assessed as reduction in cell viability at 1 uM pretreated for 24 hrs followed by 14 mins dark incubation measured after 1 to 24 hrs by Alamar blue assay; type: cell-based; settings: hepg2, 1 µM
Caco-2 [36] = experiment: Phototoxicity against human Caco2 cells at 5 to 10 uM pretreated for 24 hrs followed by 1.81 J irradiation for 7 mins measured after 24 hrs by Alamar blue assay; type: functional, cell-based
HepG2 [37] = experiment: Phototoxicity against human HepG2 cells assessed as reduction in cell viability at 5 uM pretreated for 24 hrs followed by 3.61 J irradiation for 14 mins measured after 24 hrs by Alamar blue assay; type: functional, cell-based

| Structure (SMILES) | IC50 at 1 h [1] | IC50 (Caco-2 [2]) | IC50 (Caco-2 [4]) | IC50 at 24 h [5] | Activity (HepG2 [6]) | IC50 (HepG2 [7]) | Activity (Caco-2 [8]) | Activity (HepG2 [9]) | IC50 (Caco-2 [10]) | viability at up to 10 µM [12] | viability at 24 h, 10 µM [13] | IC50 at 24 h [15] | IC50 (HepG2 [16]) | Activity [18] | Activity (HepG2 [19]) | IC50 (HepG2 [20]) | IC50 at 1 h [21] | IC50 (Caco-2 [22]) | viability at 48 h, 1 µM [23] | IC50 (HepG2 [24]) | further results |
| --- | --- | --- | --- | --- | --- | --- | --- | --- | --- | --- | --- | --- | --- | --- | --- | --- | --- | --- | --- | --- | --- |
| CCCCCCN1/C(=C/C2=C(NC)C(=C\c3ccc4ccccc4[n+]3CCCCCC)/C2=O)Sc2ccccc21.[I-] | 2930 nM | 3.9 µM | 1460 nM | 1270 nM | Active | 1020 nM | Active | Active | 1160 nM | 0% | 0% | 1360 nM | 3.39 µM | Active | Active | 830 nM | 5.11 µM | 470 nM | 70% | 930 nM | viability at 5 µM (Caco-2 [3]): 0%; viability at up to 1 µM [11]: 70%; Activity (Caco-2 [14]): Active; Ratio IC50 (Caco-2 [17]): 3.6; viability at 5 µM (Caco-2 [25]): 0% |
| CCCCCCN1/C(=C/C2=C(N)C(=C\c3ccc4ccccc4[n+]3CCCCCC)/C2=O)Sc2ccccc21 | 1710 nM | 1.24 µM | 950 nM | 1650 nM | Active | 940 nM | Active | Active | 1390 nM | 0% | 0% | 1400 nM | 0.75 µM | Active | Active | 650 nM | 1.72 µM | 690 nM | 20% | 860 nM | viability at 1 µM (Caco-2 [26]): 0%; Activity (HepG2 [27]): Active; viability at 24 h, 1 µM [28]: 20% |
| CCCCCCN1/C(=C/C2=C([O-])C(=C\c3ccc4ccccc4[n+]3CCCCCC)/C2=O)Sc2ccccc21 | 9100 nM | > 10 µM | > 10000 nM | 5800 nM |  | 8240 nM |  |  | 5380 nM |  |  | 7840 nM | 8.53 µM | Active |  | 5060 nM | > 10 µM | 5080 nM |  | 8950 nM | Activity (Caco-2 [29]): Non-Toxic; viability at 24 h, 10 µM [30]: 15%; viability at 5 µM (HepG2 [31]): 50%; Activity (HepG2 [32]): inactive; Activity (Caco-2 [33]): Active; Activity (Caco-2 [34]): Non-Toxic; Activity (HepG2 [35]): Non-Toxic; Activity (Caco-2 [36]): Active; Activity (HepG2 [37]): Active |
